The source of these data is PubChem BioAssay (NCI).

Holding throughout (assay): NCI anticancer screen, dose series, 48 h
Assay [1] has as its system HCC-2998 colon.
Assay [2] has as its system HS 578T breast.
The subject of assay [3] is MDA-MB-231 breast.
For assay [4], the system named is NCI-H23 lung.
The subject of assay [5] is NCI-H460 lung.
In assay [6] the test system is OVCAR-4 ovarian.
Assay [7] relates to RPMI-8226 leukemia.
The test system of assay [8] is SK-OV-3 ovarian.
Assay [9] concerns U251 CNS.
Assay [10] relates to UO-31 renal.

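Assay format: 96-well plates, 48-hour exposure. At the GI50, growth is halved. Definition used: TGI = concentration required for complete inhibition of growth.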 Bounds are passed on as bounds.

Take `O=C(N/N=C/C=C/c1ccc([N+](=O)[O-])o1)c1cc2ccccc2cc1O`: the GI50 in assay [1] is 1.31 µM; in [2] it was 3.6 µM; in [3], 2.17 µM; in assay [4], 1.02 µM; in assay [5], 1.64 µM; in [6], 1.06 µM. The GI50 was 1.53 µM in assay [7], 3.36 µM in assay [8], 1.42 µM in assay [9] and 1.05 µM in assay [10]. Also, the TGI in [1] was 2.59 µM; in assay [2], greater than 100 µM; in [3], 8.65 µM; in assay [4], 2.75 µM; in assay [5], 6.9 µM; in assay [6], 2.77 µM. The TGI in assay [7] came out at 6.83 µM; in assay [8] it was 38.5 µM; in [9], 4.16 µM; in assay [10] it was 4.06 µM.

Consider `COc1ccc(CC(N)c2ccc(OC)cc2)cc1` (stereo not drawn), for which the TGI is 35 µM in [1]; greater than 100 µM in assay [2]; greater than 100 µM in [3]; greater than 100 µM in assay [4]; greater than 100 µM in assay [5]; greater than 100 µM in [6]. The TGI was 83 µM in assay [7], greater than 100 µM in assay [8], greater than 100 µM in assay [9] and greater than 100 µM in assay [10].

As for `COc1cccc(CCN2CCN(CCCc3ccccc3)CC2)c1`, the TGI in assay [1], in [2], in assay [3], in assay [4], in assay [5] and in assay [6] was greater than 100 µM in each case. Moreover, the TGI in [7], in assay [8], in assay [9] and in assay [10] was greater than 100 µM each time.

For the molecule `CN(C)c1ccc(/C(F)=C(F)/C(F)=C(F)/C(F)=C(\F)c2ccc(Br)cc2)cc1`, the TGI is greater than 100 µM in assay [1]; 52.6 µM in assay [2]; greater than 100 µM in [3]; 63.4 µM in assay [4]; greater than 100 µM in assay [5]; greater than 100 µM in assay [6]. For the same molecule, the TGI is greater than 100 µM in assay [7], greater than 100 µM in [8], 44.7 µM in assay [9] and greater than 100 µM in assay [10].

Take `CCN(CC)N1C(=O)[N+](CC)(CC)N=C1[O-]`: the TGI in assay [1], in assay [2], in assay [3], in assay [4], in [5] and in assay [6] was greater than 100 µM in each case. The TGI in [7], in assay [8], in assay [9] and in assay [10] was greater than 100 µM in each case.

In the case of `CCOc1ccc(N/C(=C(/C(Cl)=C(/Cl)N(CC)CC)[N+](=O)[O-])n2nnc3ccccc32)cc1`, the TGI in assay [1] is greater than 100 µM; in assay [2], greater than 100 µM; in [3] it was 25.2 µM; in assay [4], 35 µM; in [5] it was greater than 100 µM; in assay [6] it was 52.8 µM. Also, the TGI is greater than 100 µM in assay [7], greater than 100 µM in [8], 28.1 µM in [9] and 45.2 µM in assay [10].

With `Cc1ccc(/C(O)=C/c2nc3ccccc3sc2=O)c(C)c1`, the TGI in assay [1] was greater than 100 µM; in [2] it was greater than 100 µM; in assay [3], greater than 100 µM; in [4] it was greater than 100 µM; in [5] it was greater than 100 µM; in assay [6], 70.8 µM. For the same molecule, the TGI is 77.6 µM in assay [7], greater than 100 µM in assay [8], greater than 100 µM in [9] and greater than 100 µM in assay [10].

As for `NC(=O)NNc1nc(-c2ccccc2)cs1`, the TGI in assay [1], in assay [2], in assay [3], in assay [5], in assay [6] and in [7] was greater than 100 µM in each case. In addition, the TGI in assay [8], in assay [9] and in assay [10] was greater than 100 µM throughout.

For `COc1ccc2c3c1OC1C(=O)C=CC4(CC2)N(C)CCC314` (stereo not drawn), the TGI in assay [1] was 27.4 µM; in assay [2], 92.5 µM; in [3], greater than 100 µM; in assay [4], greater than 100 µM; in assay [5], 71.1 µM; in assay [6], greater than 100 µM. The TGI in assay [7] was 45.6 µM; in assay [8], greater than 100 µM; in [9] it was 53 µM; in [10], 78.5 µM.

With `CCCC(=O)NC(Nc1ccc(S(=O)(=O)Nc2cc(C)on2)cc1)(C(=O)OCC)C(F)(F)F` (stereo not drawn), the TGI in assay [1], in [2], in assay [3], in assay [4], in assay [6] and in [7] was greater than 100 µM each time. Further, the TGI in assay [8], in [9] and in [10] was greater than 100 µM throughout.

In the case of `Cc1ccc2c(=O)cc(-c3ccc(Cl)s3)[nH]c2n1`, the TGI in assay [1] is 25.9 µM; in assay [2], greater than 22.9 µM; in assay [3], greater than 100 µM; in assay [4] it was greater than 22.9 µM; in [5] it was greater than 100 µM; in assay [6], greater than 100 µM. Besides, the TGI in assay [7] was 4.08 µM; in assay [8], 53.3 µM; in assay [9], greater than 100 µM; in assay [10] it was 0.301 µM.

Turning to `COC(OC)[C@@H]1OC[C@H](n2cnc3c(N)ncnc32)[C@H]1O`, the TGI in assay [1], in assay [2], in assay [3], in assay [4], in assay [5] and in [6] was greater than 100 µM each time. In addition, the TGI in assay [7], in [8], in [9] and in [10] was greater than 100 µM each time.
